Measured values taken from US10759740B2, “Antibacterial agents” (Rutgers, The State University of New Jersey, priority 2016, dated 2020).

Tests used:
[1] = tested on: Mobiluncus curtisii ATCC 35241; test: MIC broth microdilution (Example 3); assay type: cell-based; settings: planktonic, anaerobic
Method: (§1) The antimicrobial activity of CAms was also tested against Peptostreptococcus anaerobius ATCC 27337, Mobiluncus curtisii ATCC 35241 and Prevotella bivia ATCC 29303, all of which, in addition to G. vaginalis, are the most commonly isolated anaerobes from BV-infected women. These anaerobes were maintained within the anaerobic chamber and transferred daily into fresh sBHI. To prepare a stock solution, the CAm compounds were dissolved in ddH2O and incubated at 37° C. with shaking at 250 rpm for 10 min. Then, the solution was serially diluted twofold with sBHI broth to determine the MIC and with BHIG broth to identify the MIC-B/MBC-B against planktonic and biofilm cells, respectively. According to Clinical and Laboratory Standards Institute (CLSI 2010), the MIC is defined as the lowest concentration of antimicrobial compound producing no visible growth or complete inhibition of bacterial growth during 24 h. To determine MIC values, the broth microdilution assay was performed according to Algburi et al. (Algburi et al., 2015. Path Dis 73(5)) with minor modifications. Briefly, the overnight-grown cells were diluted with their suitable culture medium to approach ˜10^6 CFU/ml. The number of bacterial cells was identified using spot plate method (Turovskiy et al., 2012. Infect Dis Obstet Gynecol 2012:284762). The CAms were serially diluted twofold with sBHI into a non-tissue culture 96-well microplate plate (Falcon, Corning Incorporated, Corning, N.Y., USA) resulting in a final volume of 100 μl for each well. Aliquots of 100 μl of the diluted cell suspension (˜10^6 CFU/ml) were added to each well of a microplate that was treated with different concentrations of CAms. To avoid culture medium evaporation, 75 μl of mineral oil (Sigma-Aldrich, St. Louis, Mo.) was added to each treated well. The microplate was then transferred to the plate reader (Model 550, Bio-Rad Laboratories, Hercules, Calif., USA) and incubated at 37° C. for 24-36 h. The kinetic reading was statistically analyzed, and the MIC and sub-MIC of each CAm compound were determined.

[2] = tested on: Peptostreptococcus anaerobius ATCC 27337; test: MIC broth microdilution (Example 3); assay type: cell-based; settings: planktonic, anaerobic
Method: as §1

[3] = tested on: Prevotella bivia ATCC 29303; test: MIC broth microdilution (Example 3); assay type: cell-based; settings: planktonic, anaerobic
Method: as §1

[4] = tested on: L. plantarum biofilm; test: Minimum biofilm bactericidal concentration (MBC-B); assay type: cell-based, Lactobacillus plantarum; settings: pre-formed biofilm, ≥3 log reduction
Method: G. vaginalis ATCC 14019 strain was grown overnight in Brain Heart Infusion broth (Difco, Sparks, Md.) supplemented with 3% horse serum (sBHI) (JRH Biosciences, KS), while BHI supplemented with 1% glucose (BHIG) was used for biofilm formation assays. Each experiment using G. vaginalis was performed anaerobically (10% hydrogen, 5% carbon dioxide, and 85% nitrogen) within anaerobic glove boxes (Coy Laboratory Products, Inc., Grass Lake, Mich., USA). Three species of vaginal Lactobacillus were used in this study to evaluate the possible harmful effects of CAms on beneficial bacteria: Lactobacillus plantarum ATCC 39268, Lactobacillus rhamnosus 160 (provided by Dr. Aroutcheva, Rush University Medical Center) and Lactobacillus gasseri ATCC 33323; all were grown for 18-24 h in DeMan, Rogosa and Sharpe broth (MRS Difco B D, Franklin Lakes, N.J., USA) under aerobic conditions at 37° C. For lactobacilli biofilm formation, MRS broth supplemented with 1% glucose and 2% sucrose (Fisher Scientific, Waltham, Mass., USA) was utilized.
This assay was performed according to Algburi et al. (Algburi et al., 2015. Path Dis 73(5)) with minor modifications: the overnight-grown G. vaginalis was diluted to approximately 10^7 CFU/ml. For the biofilm formation assay, aliquots of 200 μl were added into a 96-well tissue culture microplate, sealed by amplification tape (Nalge Nunc International, Rochester, N.Y., USA) and incubated for 24-36 h at 37° C. After incubation, the planktonic cells were removed by gently washing the biofilm twice with 200 μl of fresh broth. The biofilm was then treated with 200 μl of a predetermined concentration of the tested compound. The microplate was incubated for 24 h at 37° C. under anaerobic conditions. After incubation, the antimicrobials (supernatant) were discarded and the biofilm was washed twice with fresh BHIG broth. The biofilm was then disrupted by vigorous pipetting, in order to determine the number of biofilm-associated cells using the spot plate method.

[5] = tested on: biofilms of G. vaginalis; test: Checkerboard assay, biofilm cells; assay type: cell-based, Gardnerella vaginalis; settings: for MBC-B of CAm in combination with metronidazole: 24 h
Method: For biofilm formation, the overnight culture of G. vaginalis was diluted to approximately 10^7 CFU/ml and 200 μl was transferred into a 96-well tissue culture microplate and incubated anaerobically at 37° C. for 24-36 h. Following biofilm formation and removal of non-adherent cells by washing the biofilm twice with BHIG, each antimicrobial was diluted twofold separately with BHIG broth into two 96-white deep-well microplates. From each dilution of antimicrobial B, 125 μL was added horizontally over 125 μL of antimicrobial A (see FIG. 1 of Algburi et al., 2015. Path Dis 73(5)). From each combination, 200 μL samples were added to the biofilm in sequence, and the microplate was incubated for 24 h at 37° C. under anaerobic conditions. The spot plate method was utilized for counting the number of CFU/ml and evaluating the bactericidal activity (MBC-B) of each antimicrobial combination against biofilm-associated G. vaginalis. Isobolograms were used to analyze the nature of antimicrobial interaction, which is classified as synergistic, antagonistic or additive activity against the planktonic and biofilm cells.
Isobolograms were used to compare the MIC and MBC-B values of each antimicrobial alone with its MIC and MBC-B values in combination with other antimicrobials. The point on the axis (X) refers to MIC or MBC-B values of the first antimicrobial with the coordinates (0, x), and the point on the axis (Y) represents the MIC or MBC-B values of the second antimicrobial with the coordinates (y, 0) when they used alone. The two MIC or MBCs-B values are connected by a dashed line (Turovskiy Y, Chikindas M L. 2011 Probiotics Antimicrob Proteins 3:144-149). The MICs or MBCs-B of each antimicrobial combination are plotted as dots on the graph. Results are expressed according to the locations of these dots from the line that connects MICs or MBCs-B of the first and second antimicrobials. When MICs or MBCs-B values are located under the line, the two combining antimicrobials are synergized, but antagonized against the tested microorganism when these dots of interaction are above. An additive effect is observed when these dots are located on the line.

Compound	MIC M. curtisii [1]	MIC Pep. anaerobius [2]	MIC P. bivia [3]	MBC-B L. plantarum [4]	MBC-B of CAm when used alone [5]	MBC-B of CAm in combination with metronidazole [5]
CCCCCCCCCCOC(C(=O)NCCN)C(OCCCCCCCCCC)C(=O)NCCN.Cl.Cl (stereo not drawn) [5b]	5.4 µM	1.6 µM	6.6 µM	>850 µM	340 µM	25.7 µM
CCCCCCCC(=O)OC(C(=O)NCCN)C(OC(=O)CCCCCCC)C(=O)NCCN.Cl.Cl (stereo not drawn) [8a]	93.1 µM	13.9 µM	111.6 µM	>890 µM	92.7 µM	26.9 µM
CCCCCCCCCC(=O)OC(C(=O)NCCN)C(OC(=O)CCCCCCCCC)C(=O)NCCN.Cl.Cl (stereo not drawn) [8b]	6.3 µM	3.1 µM	6.3 µM	>810 µM	67.7 µM	6.3 µM
